Measurements taken from patent publication US20230355622A1, “METHODS OF CHEMOVACCINATION AGAINST PLASMODIUM INFECTIONS” (Merck Sharp & Dohme LLC, priority 2020, published 2023).

How the values were obtained:
[1] = tested on: PbmCherryLuci sporozoites; assay: Inhibition of liver to blood transition in C57BL/6 mice (FIG. 8); format: in vivo, Plasmodium berghei; settings: oral gavage during liver infection
Method: 40,000 PbmCherryLuci sporozoites (or the indicated number of sporozoites) were inoculated i.v. and compounds were administered by oral gavage at indicated time points during liver infection. Liver infection levels and egress of parasites from the liver were measured by bioluminescence signal from the parasites using an In Vivo Imaging System (IVIS, Perkin Elmer) at the peak of liver infection (52 hours post infection, hpi), during liver egress (55 hpi) as well as during the first round of blood infection (65 hpi). Initiation of blood infection was also measured by flow cytometry at 65 hpi using the mCherry reporter to determine the parasitemia of this first round of blood infection. These analyses allowed quantification of the efficacy of drug killing of parasites in the liver (52 hpi), preventing their egress from the liver (55 hpi) or preventing their successful infection of the blood (65 hpi). Mice were monitored by giemsa stained thin blood smears for the presence of parasites in the blood for 30 days post infection. If no blood infection was seen during the subsequent 30 days, mice were declared cured of malaria infection.
C57BL/6 mice were administered Example 1A or Example 75A as described in the general experimental procedure.

PbmCherryLuci = assay: Prime/boost immunisation of C57BL/6 mice with CD8 depletion before mosquito bite challenge (FIG. 4); format: in vivo, Plasmodium berghei; settings: C57BL/6, prime/boost with 2 x 100 mg/kg P.O., 10 mosquito bites ten weeks after boost
Method: In addition to these protective antibody responses, the contribution of CD8 T-cells to the mechanism of immune protection was tested. Female C57BL/6 mice were immunized using a prime/boost immunisation regimen. The first immunisation was with 40,000 PbmCherryLuci salivary gland sporozoites i.v. followed by two doses of Example 1A at 100 mg/kg P.O. (given at 36 and 48 hours post infection). The second immunisation (boost) was eight weeks later, this time with 20,000 PbmCherryLuci sporozoites but with Example IA treatment as for the prime immunisation. Ten weeks after the boost immunisation (eighteen weeks after the prime immunisation) the mice were injected with 150 μg of a CD8 depleting antibody, or an isotype control non-depleting antibody the day before the mice were challenged with the bites of 10 PbmCherryLuci infected mosquitoes for 15 minutes. Giemsa stained thin blood smears were analysed until 30 days after challenge for the presence of parasites in the blood and mice were considered to be protected from infection if no blood parasites were observed within the 30 days post […].

[2] = tested on: PbmCherryLuci salivary gland sporozoites in HepG2 human hepatoma cells; assay: In vitro infection assay: immune serum inhibition of sporozoite infection of HepG2 cells (FIG. 3); format: cell-based, Plasmodium berghei; settings: serum of five BALB/c mice immunised ten months prior, 1 in 20 dilution, 48 h, versus naive serum
Method: To initiate the in vitro infection assay, 30,000 HepG2 human hepatoma cells were seeded into a 96-well plate format the day before infection. The day of infection, freshly dissected PbmCherryLuci salivary gland sporozoites were incubated with a 1 in 20 dilution of either naïve BALB/c serum (from n=5 mice) or immune serum (from n=5 mice) in culture media and added to HepG2 wells in technical triplicate. Serum samples were not pooled, so the response from five individual mice was analysed independently. Forty-eight hours after infection the infected cells were fixed with 4% formaldehyde and imaged using an Opera Phenix High Content Imager (PerkinElmer). The number of parasites in each well was counted using the mCherry reporter expressed by these parasites, the average number of parasites between the technical triplicates averaged for each serum sample, and the average for each mouse presented.

CCC1(CC)CC(=O)N(C2CCOc3ccc(C(=O)N[C@H]4CC(C)(C)Oc5ccccc54)cc32)C(=N)N1 (stereo partly drawn) [Example 1A, 4-(4,4-diethyl-2-imino-6-oxotetrahydropyrimidin-1(2H)-yl)-N—((S)-2,2-dimethylchroman-4-yl)chroman-6-carboxamide]
infection of the blood [1]: completely prevented infection of the blood in all mice
blood parasites after challenge (PbmCherryLuci; 150 μg CD8 depleting antibody): all had blood parasites 4 days after challenge
blood parasites after challenge (PbmCherryLuci; isotype control non-depleting antibody): negative for blood parasites throughout the 30-day observation period
inhibition of HepG2 infection by immune serum [2]: inhibition of infection using the serum from each of the five immunised mice
